Tested on: Escherichia coli C41
Assay type: cell-based
Details: compound itself not applied to cells

CC(C)=CCC/C(C)=C/CC/C(C)=C\CC/C(C)=C/COP(=O)(O)OP(=O)(O)O [E,Z,E-GGPP, E,Z,E-Geranylgeranyl pyrophosphate]
bactericidal effect on E. coli: bactericidal agent
